Reference: patent publication US9303015B2, “Heteroaryl linked quinolinyl modulators of RORγt” (Janssen Pharmaceutica NV, priority 2012, dated 2016)
Where “and” joins values, the source holds several entries; their conditions need not be identical. Equal values may be shown once. Where a name gives a salt, the structure may show the parent alone.

Assays:
[1] = biological target: human RORγt ligand binding domain (RORγt LBD) (Homo sapiens (Human), UniProt P51449); assay: RORγt ThermoFluor assay (thermal shift, binding affinity); conditions: estimated from thermal shift concentration response
Sequence of human RORγt ligand binding domain (RORγt LBD) (P51449 other isoform, or with tags, fused parts or gaps): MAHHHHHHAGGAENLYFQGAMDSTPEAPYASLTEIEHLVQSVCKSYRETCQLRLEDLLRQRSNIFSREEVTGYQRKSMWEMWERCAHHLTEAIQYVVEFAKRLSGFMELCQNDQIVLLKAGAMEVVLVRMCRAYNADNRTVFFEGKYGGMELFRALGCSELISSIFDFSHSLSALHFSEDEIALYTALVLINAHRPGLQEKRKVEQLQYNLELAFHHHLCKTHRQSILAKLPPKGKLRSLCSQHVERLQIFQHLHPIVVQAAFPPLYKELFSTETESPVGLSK
Protocol: This approach is applicable to a wide variety of systems, and rigorous in theoretical interpretation through quantitation of equilibrium binding constants (KD).
The shift in the melting point described as a ΔTm is proportional to the concentration and affinity of the ligand.
ThermoFluor® experiments were carried out using instruments owned by Janssen Research and Discovery, L.L.C. through its acquisition of 3-Dimensional Pharmaceuticals, Inc. 1,8-ANS (Invitrogen) was used as a fluorescent dye. Protein and compound solutions are dispensed into black 384-well polypropylene PCR microplates (Abgene) and overlayed with silicone oil (1 μL, Fluka, type DC 200) to prevent evaporation.
Bar-coded assay plates are robotically loaded onto a thermostatically controlled PCR-type thermal block and then heated at a typical ramp-rate of 1° C./min for all experiments. Fluorescence was measured by continuous illumination with UV light (Hamamatsu LC6) supplied via fiber optic and filtered through a band-pass filter (380-400 nm; >60D cutoff). Fluorescence emission of the entire 384-well plate was detected by measuring light intensity using a CCD camera (Sensys, Roper Scientific) filtered to detect 500±25 nm, resulting in simultaneous and independent readings of all 384 wells. Images were collected at each temperature, and the sum of the pixel intensity in a given area of the assay plate was recorded versus temperature. Reference wells contained RORγt without compounds, and the assay conditions were as follows: • 0.065 mg/mL RORγt • 60 μM 1,8-ANS • 100 mM Hepes, pH 7.0 • 10 mM NaCl • 2.5 mM GSH • 0.002% Tween-20
Project compounds were arranged in a pre-dosed mother plate (Greiner Bio-one) wherein compounds are serially diluted in 100% DMSO by 1:2 from a high concentration of 10 mM over 12 columns within a series (column 12 is a reference well containing DMSO, no compound). The compounds were robotically dispensed directly into assay plates (1x=[…]) using a Hummingbird capillary liquid handling instrument (Digilab). Following compound dispense, protein and dye in buffer was added to achieve the final assay volume of 3 μL, followed by 1 μL of silicone oil.

human RORγt LBD = human RORγt LBD (Homo sapiens (Human), UniProt P51449); assay: RORγt reporter assay (GAL4-RORγt LBD luciferase, HEK293T cells); type: cell-based; conditions: for RORγt reporter Assay, % inhibition @ 6 μM / IC50: HEK293T cells; for IC50: 24 hours compound treatment; for inhibition at 6 µM: HEK-293T, read-out: RORγt reporter Assay, % inhibition @ 6 μM, 6 μM, HEK293T cells
Sequence of human RORγt LBD (P51449 258-518): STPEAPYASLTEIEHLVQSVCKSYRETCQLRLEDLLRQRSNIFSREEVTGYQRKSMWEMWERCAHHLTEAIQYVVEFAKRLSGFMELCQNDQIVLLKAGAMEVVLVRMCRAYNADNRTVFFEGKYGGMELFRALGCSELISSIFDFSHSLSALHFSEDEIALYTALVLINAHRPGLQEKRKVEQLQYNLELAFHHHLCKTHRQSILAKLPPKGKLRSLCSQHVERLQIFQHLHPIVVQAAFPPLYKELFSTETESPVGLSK
From the text: A reporter assay was used to test functional activity of RORγt modulatory compounds on transcriptional activation driven by the RORγt LBD. Cells used in the assay were co-transfected with two constructs. The first construct, pBIND-RORγt LBD, contained the wild type human RORγt LBD fused to the DNA binding domain of the GAL4 protein. The second construct, pGL4.31 (Promega Cat no. C935A), contained multiple GAL4 responsive DNA elements upstream of firefly luciferase. […] The mutant construct was called pBIND-RORγt-AF2. […] The pBIND vector contains the GAL4 DNA Binding Domain (GAL4 DBD) and the renilla luciferase gene under control of the SV40 promoter. Renilla luciferase expression serves as a control for transfection efficiency and cell viability.
The reporter assay was performed by transiently transfecting HEK293T cells with 5 μg of pBIND-RORγt LBD or pBIND-RORγt LBD-AF2 and 5 μg pGL4.31 (Promega Cat no. C935A) using Fugene 6 (Invitrogen Cat no. E2691) at a 1:6 ratio of DNA: Fugene 6 in a T-75 flask in which cells were at least 80% confluent. Twenty four hours after bulk transfection, cells were plated into 96-well plates at 50,000 cells/well in phenol-red free DMEM containing 5% Lipid Reduced FCS and Pen/Strep. Six hours after plating, cells were treated with compounds for 24 hours. Media was removed and cells were lysed with 50 μL 1x Glo Lysis Buffer (Promega). Dual Glo Luciferase Reagent (50 μL/well) was then added and firefly luciferase luminescence was read on an Envision after a ten minute incubation. Finally, Stop and Glo reagent (50 μL/well) was added and renilla luciferase luminescence was read on an Envision after a ten minute incubation. To calculate the effect of compounds on RORγt activity, the ratio of firefly to renilla luciferase was determined and plotted against compound concentration. Agonist compounds increase RORγt-driven luciferase expression, and antagonist or inverse agonist compounds decrease luciferase expression.

[2] = system: IL-17 production by CD4 T cells; assay: Human Th17 assay; type: cell-based; conditions: IL-17 in supernatant after 3 days, human CD4+ T cells under Th17 differentiation
From the text: The human Th17 assay tests the effect of RORγt modulatory compounds on IL-17 production by CD4 T cells under conditions which favor Th17 differentiation.
Total CD4^+ T cells were isolated from the peripheral blood mononuclear cells (PBMC) of healthy donors using a CD4^+ T cell isolation kit II, following the manufacturer's instructions (Miltenyi Biotec). Cells were resuspended in a medium of RPMI-1640 supplemented with 10% fetal bovine serum, penicillin, streptomycin, glutamate, and β-mercaptoethanol and were added to 96-well plates at 1.5×10^5 per 100 μL per well. 50 μL of compound at titrated concentrations in DMSO were added into each well at final DMSO concentration at 0.2%. Cells were incubated for 1 hour, then 50 μL of Th17 cell differentiation medium was added to each well. The final concentrations of antibodies and cytokines (R&D Systems) in differentiation medium were: 3×10^6/mL anti-CD3/CD28 beads (prepared using human T cell activation/expansion kit, Miltenyi Biotec), 10 μg/mL anti-IL4, 10 μg/mL anti-IFNγ, 10 ng/mL IL113, 10 ng/mL IL23, 50 ng/mL IL6, 3 ng/mL TGFβ and 20 U/mL IL2. Cells were cultured at 37° C. and 5% CO2 for 3 days. Supernatants were collected and the accumulated IL-17 in culture was measured by using MULTI-SPOT® Cytokine Plate following manufacture's instruction (Meso Scale Discovery). The plate was read using Sector Imager 6000, and IL-17 concentration was extrapolated from the standard curve. The IC50s were determined by GraphPad.

Kd [1] [µM]	RORγt reporter Assay, % inhibition @ 6 μM (human RORγt LBD) [%]	IC50 (human RORγt LBD)	inhibition at 6 µM (human RORγt LBD) [%]	IC50 ([2]; Homo sapiens, CD4+ T, 72 h) [µM]	IC50 [2] [µM]	Compound
0.0029	48	~6 µM and > 6 µM				Cn1cncc1C(O)(c1ccc(C(F)(F)F)nc1)c1ccc2nc(C#N)c(Oc3ccccc3)c(C#N)c2c1 (single isomer, unassigned) [Example 22b, 6-(Hydroxy(1-methyl-1H-imidazol-5-yl)(6-(trifluoromethyl)pyridin-3-yl)methyl)-3-phenoxyquinoline-2,4-dicarbonitrile]
0.097	88	0.68 µM				Cn1cncc1C(O)(c1ccc(C(F)(F)F)nc1)c1ccc2nc(C#N)c(Oc3ccccc3)c(C#N)c2c1 (single isomer, unassigned) [Example 22c, 6-(Hydroxy(1-methyl-1H-imidazol-5-yl)(6-(trifluoromethyl)pyridin-3-yl)methyl)-3-phenoxyquinoline-2,4-dicarbonitrile]
			101	0.11		Cn1cncc1C(O)(c1ccc(Cl)cc1)c1ccc2nc(N3CCC3)c(Oc3ccc(C#N)cc3)c(Cl)c2c1 (single isomer, unassigned) [Example 32b, 4-((2-(Azetidin-1-yl)-4-chloro-6-((4-chlorophenyl)(hydroxyl)(1-methyl-1H-imidazol-5-yl)methyl)quinolin-3-yl)oxy)benzonitrile]
	101				0.056	Cn1cncc1C(O)(c1ccc(Cl)cc1)c1ccc2nc(N3CCC3)c(Oc3ccc(C#N)cc3)c(Cl)c2c1 (single isomer, unassigned) [Example 32c, 4-((2-(Azetidin-1-yl)-4-chloro-6-((4-chlorophenyl)(hydroxyl)(1-methyl-1H-imidazol-5-yl)methyl)quinolin-3-yl)oxy)benzonitrile]
0.11		0.67 µM	86			Cn1cncc1C(O)(c1ccc(Cl)cc1)c1ccc2nc(Cl)c(Oc3ccccc3)c(Cl)c2c1 (stereo not shown) [Example 1, (4-Chlorophenyl)(2,4-dichloro-3-phenoxyquinolin-6-yl)(1-methyl-1H-imidazol-5-yl)methanol]
			104	0.13		CCN(CC)c1nc2ccc(C(O)(c3ccc(OC)nc3)c3cncn3C)cc2c(Cl)c1Oc1ccccc1 (stereo not shown) [Example 5a, (4-Chloro-2-(diethylamino)-3-phenoxyquinolin-6-yl)(6-methoxypyridin-3-yl)(1-methyl-1H-imidazol-5-yl)methanol]
			102	0.096		CCN(CC)c1nc2ccc(C(O)(c3ccc(C(F)(F)F)nc3)c3cncn3C)cc2c(Cl)c1Oc1ccccc1 (stereo not shown) [Example 6a, (4-Chloro-2-(diethylamino)-3-phenoxyquinolin-6-yl)(1-methyl-1H-imidazol-5-yl)(6-(trifluoromethyl)pyridin-3-yl)methanol]
			91	0.11		CCN(CC)c1nc2ccc(C(O)(c3cccnc3)c3cccc(Cl)c3)cc2c(Cl)c1Oc1ccccc1 (stereo not shown) [Example 7, (4-Chloro-2-(diethylamino)-3-phenoxyquinolin-6-yl)(3-chlorophenyl)(pyridin-3-yl)methanol]
			95	0.048		CCN(CC)c1nc2ccc(C(O)(c3cncs3)c3cncn3C)cc2c(Cl)c1Oc1ccccc1 (stereo not shown) [Example 8, (4-Chloro-2-(diethylamino)-3-phenoxyquinolin-6-yl)(1-methyl-1H-imidazol-5-yl)(thiazol-5-yl)methanol.TFA]
			99	0.11		COc1ccc(C(O)(c2ccc3nc(N(C)C)c(Oc4ccccc4)c(Cl)c3c2)c2cncn2C)cn1 (stereo not shown) [Example 17, (4-Chloro-2-(dimethylamino)-3-phenoxyquinolin-6-yl)(6-methoxypyridin-3-yl)(1-methyl-1H-imidazol-5-yl)methanol]
			85	0.17		Cn1cncc1C(O)(c1ccc(Cl)cc1)c1ccc2nc(C#N)c(Oc3ccccc3)c(Cl)c2c1 (stereo not shown) [Example 19, 4-Chloro-6-((4-chlorophenyl)(hydroxy)(1-methyl-1H-imidazol-5-yl)methyl)-3-phenoxyquinoline-2-carbonitrile.TFA]
			89	0.51		CCN(CC)c1nc2ccc(C(O)(c3ccc(Cl)cc3)c3cncn3C)cc2c(C(F)(F)F)c1Oc1ccc(Cl)cc1 (stereo not shown) [Example 26, (3-(4-Chlorophenoxy)-2-(diethylamino)-4-(trifluoromethyl)quinolin-6-yl)(4-chlorophenyl)(1-methyl-1H-imidazol-5-yl)methanol.TFA]
			89	0.18		CCN(CC)c1nc2ccc(C(O)(c3ccc(C(F)(F)F)nc3)c3cncn3C)cc2c(C(F)(F)F)c1Oc1ccc(Cl)cc1 (stereo not shown) [Example 27a, (3-(4-Chlorophenoxy)-2-(diethylamino)-4-(trifluoromethyl)quinolin-6-yl)(1-methyl-1H-imidazol-5-yl)(6-(trifluoromethyl)pyridin-3-yl)methanol]
			99	0.12		CCN(CC)c1nc2ccc(C(O)(c3ccc(OC)nc3)c3cncn3C)cc2c(C(F)(F)F)c1Oc1ccc(Cl)cc1 (stereo not shown) [Example 28, (3-(4-Chlorophenoxy)-2-(diethylamino)-4-(trifluoromethyl)quinolin-6-yl)(6-methoxypyridin-3-yl)(1-methyl-1H-imidazol-5-yl)methanol.TFA]
0.0018		0.14 µM	93			Cn1cncc1C(O)(c1ccc(C(F)(F)F)nc1)c1ccc2nc(N3CCC3)c(Oc3ccc(Cl)cc3)c(Cl)c2c1 (stereo not shown) [Example 30a, (2-(Azetidin-1-yl)-4-chloro-3-(4-chlorophenoxy)quinolin-6-yl)(1-methyl-1H-imidazol-5-yl)(6-(trifluoromethyl)pyridin-3-yl)methanol]
0.035		0.52 µM and ~1 µM	85			CN(c1ccccc1)c1c(Cl)nc2ccc(C(O)(c3ccc(Cl)cc3)c3cncn3C)cc2c1Cl (stereo not shown) [Example 38, (4-Chlorophenyl)(2,4-dichloro-3-(methyl(phenyl)amino)quinolin-6-yl)(1-methyl-1H-imidazol-5-yl)methanol]
